Assay results taken from US20060173069A1, “Therapeutic agent for hyperpotassemia and bone disease” (RIKEN, priority 2003, published 2006).
Positions of bridges follow the written chain, without caps; N, C: chain ends. No end group written: not given here.

Columns and labels:
mature osteoclasts = experiment: Cell-death (apoptosis) inducing activity on mature osteoclasts, number of TRAP-stained multinuclear cells; format: cell-based, mouse; conditions: Mus musculus, Osteoclast; RAW264-derived mature osteoclasts, 24 hours incubation, TRAP staining; read-out: ED50 level of cell-death inducing activity to mature osteoclasts, Number of cells
Experimental: Using 29 different reveromycin A derivatives synthesized as described above, the cell-death inducing activities on the mature osteoclasts and undifferentiated macrophage-like cells derived from a mouse (RAW264 cells) were examined, respectively. The RAW264 cells, a mouse-macrophage cell line, were suspended in a 10% FBS-αMEM (manufactured by Gibco BRL Co., Ltd.) and then 12,000 cells/100 μl were inoculated in a 96-well plate. After 1-hour incubation, 100 μl of a culture medium containing RANKL ([…]) and PD98059 (40 μM) were added (final concentration: RANKL […] and PD98059 20 μM) and then incubated for 4 days to allow the differentiation of the cells to mature osteoclasts (J. Biol. Chem. Vol. 277, pp. 47366-47372 (2002)). Furthermore, on the second day of the culture, the half of the culture medium was replaced with new one. From each well of the plate where the cells were differentiated to the mature osteoclasts, 100 μl/well of the culture medium was removed. […] The apoptosis inducing activity was confirmed by the observation of agglutination of nuclei stained with 10 μM Hoechst 33258 for 10-minututes.

[1] = tested on: undifferentiated RAW264 cells; experiment: Cell-death inducing activity on undifferentiated RAW264 cells, MTT method; format: cell-based, mouse; conditions: Mus musculus, RAW264.7; 24 hours incubation, MTT; read-out: ED50 level of cell-death inducing activity to undifferentiated RAW264 cells, MTT
Experimental: The cell-death inducing activities to the undifferentiated RAW264 cells were investigated by the MTT method (J. Immunol. Methods, Vol. 65, pp 55-63 (1983). The RAW 264 cells were plated on a 96-well plate at a density of 40,000 cells/100 μl and then incubated for 24 hours. After the 24-hour incubation, 50 μl of a culture medium containing a three-fold concentration of the drug was added and then incubated for 24 hours to investigate the cell-death inducing activity. Two hours before the measurement of the cell-death inducing activity, 15 μl of 0.5% MTT-PBS (phosphate buffer saline) was added and incubated. After that, the residue from which the culture solution was removed was dissolved in 100 μl of DMSO (dimethyl sulfoxide) and the absorbance at 570 nm (a reference wave length of 630 nm) was measured, followed by calculating the ED50 level of the cell-death inducing activity.

[2] = tested on: bone resorption due to parathyroid hormone (PTH); experiment: Serum calcium in TPTX rats with hypercalcemia by continuous PTH infusion; format: in vivo, SD rats; conditions: comparison of calcitonin with reveromycin A derivatives
Experimental: The bone resorption inhibitory effects of the reveromycin A derivatives were examined by measuring the level of serum calcium released in the blood by the action of bone resorption. SD rats were subjected to an operation of extracting the thyroid glands and the parathyroid glands (TPTX). Next day, a decrease in serum calcium was confirmed and then the continuous infusion of the parathyroid hormone (PTH) was carried out, thereby creating rats each having hypercalcemia by accelerating the bone resorption.
At 12 hours from the initiation of PTH injection, the reveromycin A derivatives ([…]) or a sodium salt thereof ([…]) were administered and the level of serum calcium was then measured in time-course for 24 hours.

Compound	EC50 (mature osteoclasts) [µM]	CC50 [1] [µM]	duration of inhibitory action on bone resorption [2]
CCCC[C@@]1(O)CC[C@]2(CC[C@H](C)[C@@H](C/C=C(C)/C=C/[C@H](OC)[C@@H](C)/C=C/C(=O)OC)O2)O[C@H]1/C=C/C(C)=C/C(=O)OC (mixture of isomers) [Compound 7]	> 51	> 169	–
CCCC[C@@]1(O)CC[C@]2(CC[C@H](C)[C@@H](C/C=C(C)/C=C/[C@H](O)[C@@H](C)/C=C/C(=O)O)O2)O[C@H]1/C=C/C(C)=C/C(=O)O (mixture of isomers) [Compound 11]	41	> 178	–
CCCC[C@]1(C(/C=C/C(C)=C/C(=O)O)OC(=O)CCC(=O)O)CC[C@]2(CC[C@H](C)[C@@H](C/C=C(C)/C=C/[C@H](O)[C@@H](C)/C=C/C(=O)O)O2)O1 (some centres unmarked) [Compound 1]	> 45	132	–
CCCC[C@@]1(OC(=O)CCC(=O)O)CC[C@]2(CC[C@H](C)[C@@H](CCO)O2)O[C@H]1/C=C/C(C)=C/C(=O)O [Compound 3]	> 6	> 6	–
CCCC[C@@]1(OC(=O)CCC(=O)O)CC[C@]2(CC[C@H](C)[C@@H](C/C=C(\C)CO)O2)O[C@H]1/C=C/C(C)=C/C(=O)O [Compound 4]	> 5.6	> 5.6	–
CCCC[C@@]1(OC(=O)CCC(=O)O)CC[C@]2(CC[C@H](C)[C@@H](C/C=C(\C)COC(=O)CCC(=O)O)O2)O[C@H]1/C=C/C(C)=C/C(=O)O [Compound 5]	> 47	> 157	–
CCCC[C@]1([C@@H](O)/C=C/C(C)=C/C(=O)O)CC[C@]2(CC[C@H](C)[C@@H](C/C=C(C)/C=C/[C@H](O)[C@@H](C)/C=C/C(=O)O)O2)O1 [Compound 10]	> 54	> 178	–
CCCC[C@@]1(OC(=O)CCC(=O)OC)CC[C@]2(CC[C@H](C)[C@@H](C/C=C(C)/C=C/[C@H](O[Si](C)(C)C(C)(C)C)[C@@H](C)/C=C/C(=O)OC)O2)O[C@H]1/C=C/C(C)=C/C(=O)O [Compound 12]	0.6	1	–
CCCC[C@@]1(OC(=O)CCC(=O)O)CC[C@]2(CC[C@H](C)[C@@H](C/C=C(C)/C=C/[C@H](O)[C@@H](C)/C=C/C(=O)OC)O2)O[C@H]1/C=C/C(C)=C/C(=O)OC [Compound 13]	2.5	7.6	–
CCCC[C@@]1(OC(=O)CCC(=O)OC)CC[C@]2(CC[C@H](C)[C@@H](C/C=C(C)/C=C/[C@H](O)[C@@H](C)/C=C/C(=O)O)O2)O[C@H]1/C=C/C(C)=C/C(=O)OC [Compound 14]	3.3	25	–
CCCC[C@@]1(OC(=O)CCC(=O)O)CC[C@]2(CC[C@H](C)[C@@H](C/C=C(C)/C=C/[C@H](O)[C@@H](C)/C=C/C(=O)OC)O2)O[C@H]1/C=C/C(C)=C/C(=O)O [Compound 15]	5.8	25	–
CCCC[C@@]1(OC(=O)CCC(=O)OC)CC[C@]2(CC[C@H](C)[C@@H](C/C=C(C)/C=C/[C@H](O)[C@@H](C)/C=C/C(=O)OC)O2)O[C@H]1/C=C/C(C)=C/C(=O)OC [Compound 16]	26	> 142	–
CCCC[C@@]1(OC)CC[C@]2(CC[C@H](C)[C@@H](C/C=C/C(C)=C/C(=O)O)O2)O[C@H]1/C=C/C(C)=C/C(=O)O [Compound 17]	> 61	–	–
CCCC[C@@]1(OC(=O)CCC(=O)OC)CC[C@]2(CC[C@H](C)[C@@H](C/C=C(C)/C=C/C(C)O)O2)O[C@H]1/C=C/C(C)=C/C(=O)OC (some centres unmarked) [Compound 19]	36	> 50	–
CCCC[C@@]1(OC(=O)CCC(=O)OC)CC[C@]2(CC[C@H](C)[C@@H](C/C=C(C)/C=C/C(O)c3ccccc3)O2)O[C@H]1/C=C/C(C)=C/C(=O)OC (some centres unmarked) [Compound 20]	> 45	> 150	–
CCCC[C@@]1(OC(=O)CCC(=O)OC)CC[C@]2(CC[C@H](C)[C@@H](C/C=C(C)/C=C/[C@H](O)[C@@H](C)/C=C/C(=O)O)O2)O[C@H]1/C=C/C(C)=C/C(=O)O [Compound 21]	7.3	21	–
CCCC[C@@]1(OC(=O)CCC(=O)O)CC[C@]2(CC[C@H](C)[C@@H](C/C=C(C)/C=C/[C@H](O)[C@@H](C)/C=C/C(=O)O)O2)O[C@H]1/C=C/C(C)=C/C(=O)OC [Compound 22]	9.3	53	–
CCCC[C@@]1(OC(=O)CCC(=O)O)CC[C@]2(CC[C@H](C)[C@@H](C/C=C(C)/C=C/C(C)O)O2)O[C@H]1/C=C/C(C)=C/C(=O)OC (some centres unmarked) [Compound 23]	> 17	> 17	–
CCCC[C@@]1(OC(=O)CCC(=O)O)CC[C@]2(CC[C@H](C)[C@@H](C/C=C(C)/C=C/C(O)c3ccccc3)O2)O[C@H]1/C=C/C(C)=C/C(=O)OC (some centres unmarked) [Compound 24]	> 15	> 15	–
CCCC[C@@]1(OC(=O)CCC(=O)O)CC[C@]2(CC[C@H](C)[C@@H](C/C=C(C)/C=C/[C@@H](C)O)O2)O[C@H]1/C=C/C(C)=C/C(=O)OC [Compound 25]	> 17	> 17	–
CCCC[C@@]1(OC(=O)CCC(=O)O)CC[C@]2(CC[C@H](C)[C@@H](C/C=C(C)/C=C/[C@H](OC)[C@@H](C)/C=C/C(=O)O)O2)O[C@H]1/C=C/C(C)=C/C(=O)O [Compound 26]	> 44	> 148	–
CCCC[C@@]1(OC)CC[C@]2(CC[C@H](C)[C@@H](C/C=C(C)/C=C/[C@H](O)[C@@H](C)/C=C/C(=O)O)O2)O[C@H]1/C=C/C(C)=C/C(=O)O [Compound 1390-II]	> 5.2	–	–
CCCC[C@]1(C(/C=C/C(C)=C/C(=O)O)OC)CC[C@]2(CC[C@H](C)[C@@H](C/C=C(C)/C=C/[C@H](O)[C@@H](C)/C=C/C(=O)O)O2)O1 (some centres unmarked) [Compound 1392-II]	> 52	> 174	–
CCCC[C@@]1(OC(=O)CCC(=O)O)CC[C@]2(CC[C@H](C)[C@@H](C/C=C(C)/C=C/[C@H](O)[C@@H](C)/C=C/C(=O)O)O2)O[C@H]1/C=C/C(C)=C/C(=O)O [Reveromycin A, reveromycin A, reference compound]	0.18	24	–
calcitonin (CGNLSTCMLGTYTQDFNKFHTFPQTAIGVGAP-NH2; disulfide 1-7; ends not checked; UniProt P01258 85-116, looked up) [reference compound]	–	–	shorter inhibitory action on bone resorption
